# Where “and” joins values, the source holds several entries; their conditions need not be identical. Identical values can stand only once.
# Biological target: T1, HCMV polymerase (Human cytomegalovirus, UniProt P08546)
# T1 construct: made in house; host or cells: recombinant baculovirus-infected SF-9 cells
# Assay: HCMV polymerase assay (scintillation proximity assay)
# Format: biochemical
# Conditions: IC50 uM, Table 10; CMV pol Assay
# Experimental: The HCMV polymerase assay is performed using a scintillation proximity assay (SPA) as described in several references, such as N. D. Cook, et al., Pharmaceutical Manufacturing International, pages 49-53 (1992); K. Takeuchi, Laboratory Practice, September issue (1992); U.S. Pat. No. 4,568,649 (1986); which are incorporated by reference herein. Reactions are performed in 96-well plates. The assay is conducted in 100 μl volume with 5.4 mM HEPES (pH 7.5), 11.7 mM KCl, 4.5 mM MgCl2, 0.36 mg/ml BSA, and 90 nM ^3H-dTTP. Assays are run with and without CHAPS, (3-[(3-Cholamidopropyl)-dimethylammonio]-1-propane-sulfonate) at a final concentration of 2 mM. HCMV is diluted in enzyme dilution buffer containing 50% glycerol, 250 mM NaCl, 10 mM HEPES (pH 7.5), 100 pg/ml BSA, and 0.01% sodium azide. The HCMV polymerase, which is expressed in recombinant baculovirus-infected SF-9 cells and purified according to literature procedures, is added at 10% (or 10 μl) of the final reaction volume, i.e., 100 μl. Compounds are diluted in 50% DMSO and 10 μl are added to each well. Control wells contain an equivalent concentration of DMSO. Unless noted otherwise, reactions are initiated via the addition of 6 nM biotinylated poly(dA)-oligo(dT) template/primer to reaction mixtures containing the enzyme, substrate, and compounds of interest. Plates are incubated in a 25° C. of 37° C. H2O bath and terminated via the addition of 40 μl/reaction of 0.5 M EDTA (pH 8) per well. Reactions are terminated within the time-frame during which substrate incorporation is linear and varied depending upon the enzyme and conditions used, i.e., 30 min. for HCMV polymerase. Ten μl of streptavidin-SPA beads (20 mg/ml in PBS/10% glycerol) are added following termination of the reaction. Plates are incubated 10 min. at 37° C., then equilibrated to room temperature, and counted on a Packard Topcount. Linear regressions are performed and IC50's are calculated using computer software. Results of the testing of compounds of the present invention in this assay are shown in Tables 1, 2, 5, 9, 10, 11, 13 (except for the last compound which was tested under modified conditions) and 14 below.
# T1 sequence (P08546 whole entry): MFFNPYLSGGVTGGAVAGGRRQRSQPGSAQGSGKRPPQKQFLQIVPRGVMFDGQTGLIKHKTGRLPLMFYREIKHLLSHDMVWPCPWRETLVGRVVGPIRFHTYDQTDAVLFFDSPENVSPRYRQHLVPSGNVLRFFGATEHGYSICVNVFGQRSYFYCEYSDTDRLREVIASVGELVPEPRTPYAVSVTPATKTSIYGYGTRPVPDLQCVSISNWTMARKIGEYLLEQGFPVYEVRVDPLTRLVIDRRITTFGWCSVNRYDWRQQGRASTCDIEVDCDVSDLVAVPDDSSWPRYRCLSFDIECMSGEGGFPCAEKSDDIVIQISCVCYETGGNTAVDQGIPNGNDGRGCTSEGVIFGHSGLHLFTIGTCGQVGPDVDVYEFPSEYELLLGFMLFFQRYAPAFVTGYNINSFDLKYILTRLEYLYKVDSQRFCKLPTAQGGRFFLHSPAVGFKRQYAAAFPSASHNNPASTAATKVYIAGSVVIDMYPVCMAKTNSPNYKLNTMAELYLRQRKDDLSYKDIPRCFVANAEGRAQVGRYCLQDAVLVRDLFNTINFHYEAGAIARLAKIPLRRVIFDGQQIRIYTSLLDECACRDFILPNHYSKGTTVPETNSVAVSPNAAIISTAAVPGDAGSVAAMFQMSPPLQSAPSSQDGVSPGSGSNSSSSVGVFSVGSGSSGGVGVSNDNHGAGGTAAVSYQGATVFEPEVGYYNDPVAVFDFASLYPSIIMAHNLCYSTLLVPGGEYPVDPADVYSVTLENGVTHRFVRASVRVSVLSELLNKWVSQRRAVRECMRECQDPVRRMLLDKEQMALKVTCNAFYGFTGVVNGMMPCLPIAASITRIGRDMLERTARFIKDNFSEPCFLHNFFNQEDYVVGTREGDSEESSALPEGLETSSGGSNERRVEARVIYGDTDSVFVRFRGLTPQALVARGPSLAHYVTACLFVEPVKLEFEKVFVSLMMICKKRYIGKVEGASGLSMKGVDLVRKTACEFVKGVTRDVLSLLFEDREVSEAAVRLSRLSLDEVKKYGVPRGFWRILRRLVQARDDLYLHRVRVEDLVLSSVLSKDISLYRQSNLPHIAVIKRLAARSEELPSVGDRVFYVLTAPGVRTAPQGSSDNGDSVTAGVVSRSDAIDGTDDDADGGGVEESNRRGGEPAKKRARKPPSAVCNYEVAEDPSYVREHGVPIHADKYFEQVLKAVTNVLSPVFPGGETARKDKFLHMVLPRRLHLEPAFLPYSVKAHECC
row,SMILES,IC50 [µM]
1,O=C(Nc1ccc2c(C(F)(F)F)cc(=O)oc2c1)c1ccc2cccnc2c1O,9.5

# Same assay, conditions: Table 9; read-out: CMV pol Assay- IC50
row,SMILES,IC50
1,O=C(NCC(c1ccccc1)c1ccccc1)c1ccc2cccnc2c1O,0.9 µM
2,O=C(NCCC(c1ccccc1)c1ccccc1)c1ccc2cccnc2c1O,< 1.5 µM
3,CC1(C)C2CCC(CNC(=O)c3ccc4cccnc4c3O)C1C2 (stereo not shown),1.5 µM
4,CCCCCCC(C)NC(=O)c1ccc2cccnc2c1O (stereo not shown),1.7 µM
5,O=C(N[C@@H](c1ccccc1)[C@H](O)c1ccccc1)c1ccc2cccnc2c1O,2.2 µM and 4.7 µM
6,CCCCCCCCCNC(=O)c1ccc2cccnc2c1O,2.2 µM
7,CC(C)(C)C1CCC(NC(=O)c2ccc3cccnc3c2O)CC1 (stereo not shown),2.3 µM
8,C[C@@H](NC(=O)c1ccc2cccnc2c1O)c1cccc2ccccc12,< 3.1 µM and 2.4 µM and 10.8 µM
9,CC(NC(=O)c1ccc2cccnc2c1O)c1ccc(Br)cc1 (stereo not shown),2.6 µM
10,O=C(N[C@H](c1ccccc1)[C@@H](O)c1ccccc1)c1ccc2cccnc2c1O,2.9 µM and 6.4 µM
11,C[C@H](NC(=O)c1ccc2cccnc2c1O)c1cccc2ccccc12,3 µM
12,O=C(NCc1c(Cl)cccc1Oc1ccccc1)c1ccc2cccnc2c1O,3.1 µM
13,CCCCCCCCCCCNC(=O)c1ccc2cccnc2c1O,< 3.1 µM
14,CC1CCCCC1NC(=O)c1ccc2cccnc2c1O (stereo not shown),< 3.1 µM and > 10 µM
15,O=C(N[C@H](CO)Cc1ccc(O)cc1)c1ccc2cccnc2c1O,3.1 µM
16,CCCCC(CC)CNC(=O)c1ccc2cccnc2c1O (stereo not shown),3.2 µM
17,O=C(NCc1cccc2ccccc12)c1ccc2cccnc2c1O,3.7 µM
18,O=C(NCCc1ccc(Oc2ccccc2)cc1)c1ccc2cccnc2c1O,4.5 µM
19,C[C@@H](NC(=O)c1ccc2cccnc2c1O)c1ccc(Br)cc1,4.6 µM
20,COC(=O)[C@H](Cc1ccc(OCc2ccccc2)cc1)NC(=O)c1ccc2cccnc2c1O,4.9 µM
21,O=C(NCCc1ccc(Br)cc1)c1ccc2cccnc2c1O,5 µM
22,O=C(NCc1ccc(Cl)cc1Cl)c1ccc2cccnc2c1O,5.2 µM
23,CCCCCCCNC(=O)c1ccc2cccnc2c1O,5.2 µM
24,CCCCCCCCNC(=O)c1ccc2cccnc2c1O,5.6 µM
25,O=C(NCc1ccc(Cl)c(Cl)c1)c1ccc2cccnc2c1O,5.6 µM

row,SMILES,IC50
1,O=C(NC1(CO)CCCC1)c1ccc2cccnc2c1O,6.6 µM
2,O=C(NCCc1ccc(Cl)cc1)c1ccc2cccnc2c1O,6.7 µM
3,O=C(NCCc1cccc(Cl)c1)c1ccc2cccnc2c1O,6.9 µM
4,O=C(NCc1c(F)cccc1F)c1ccc2cccnc2c1O,7.1 µM
5,CCCCCCCCCCNC(=O)c1ccc2cccnc2c1O,7.1 µM
6,O=C(NCCCCc1ccccc1)c1ccc2cccnc2c1O,7.4 µM
7,O=C(NC1CCCCCCC1)c1ccc2cccnc2c1O,7.6 µM
8,O=C(NC1CCCc2ccccc21)c1ccc2cccnc2c1O (stereo not shown),7.6 µM
9,O=C(NCC(O)c1ccccc1)c1ccc2cccnc2c1O (stereo not shown),7.8 µM
10,CCCCCC(C)NC(=O)c1ccc2cccnc2c1O (stereo not shown),7.9 µM
11,CC(C)(C)OC(=O)[C@H](Cc1ccc(O)cc1)NC(=O)c1ccc2cccnc2c1O,8.1 µM
12,O=C(NCCSCc1c(Cl)cccc1Cl)c1ccc2cccnc2c1O,8.4 µM
13,CC1CCCC(NC(=O)c2ccc3cccnc3c2O)C1C (stereo not shown),8.4 µM
14,O=C(NCc1cccc(C(F)(F)F)c1)c1ccc2cccnc2c1O,8.5 µM
15,O=C(NCc1cccc(Cl)c1)c1ccc2cccnc2c1O,8.7 µM
16,O=C(NCCc1ccc(Cl)cc1Cl)c1ccc2cccnc2c1O,9 µM
17,O=C(N[C@@H](CO)C(=O)OCc1ccccc1)c1ccc2cccnc2c1O,11.3 µM and 9.2 µM
18,O=C(NCCSc1ccccc1)c1ccc2cccnc2c1O,9.2 µM
19,O=C(NCCCc1ccccc1)c1ccc2cccnc2c1O,9.3 µM
20,O=C(NCc1ccccc1Sc1ccccc1CO)c1ccc2cccnc2c1O,9.4 µM
21,O=C(NCCSCc1c(F)cccc1Cl)c1ccc2cccnc2c1O,9.6 µM
22,COC(=O)[C@H](Cc1ccc([N+](=O)[O-])cc1)NC(=O)c1ccc2cccnc2c1O,10.8 µM
23,O=C(NCCc1c[nH]c2ccccc12)c1ccc2cccnc2c1O,11.1 µM
24,COC(=O)C(Cc1ccc(O)cc1)NC(=O)c1ccc2cccnc2c1O (stereo not shown),12.1 µM
25,O=C(NCCSc1cc(C(F)(F)F)nc2ccccc12)c1ccc2cccnc2c1O,12.6 µM

row,SMILES,IC50
1,O=C(NC1CCc2ccccc21)c1ccc2cccnc2c1O (stereo not shown),13.2 µM
2,O=C(NCc1ccc(C(F)(F)F)cc1)c1ccc2cccnc2c1O,13.7 µM
3,O=C(NCc1cccc(Cl)c1Cl)c1ccc2cccnc2c1O,14.6 µM
4,CC(CNC(=O)c1ccc2cccnc2c1O)c1ccccc1 (stereo not shown),14.8 µM
5,O=C(NCc1ccccc1C(F)(F)F)c1ccc2cccnc2c1O,15.7 µM
6,Cc1ccc(CCNC(=O)c2ccc3cccnc3c2O)cc1,16.8 µM
7,O=C(NCc1cc(Cl)ccc1Cl)c1ccc2cccnc2c1O,17 µM
8,O=C(NCc1ccc(F)c(Cl)c1)c1ccc2cccnc2c1O,17.5 µM
9,O=C(N[C@@H]1CC2CCC1C2)c1ccc2cccnc2c1O (stereo partly shown),19.2 µM
10,COc1cc(CNC(=O)c2ccc3cccnc3c2O)ccc1O,19.3 µM
11,O=C(NCc1ccccc1Cl)c1ccc2cccnc2c1O,19.7 µM
12,O=C(NCCc1ccc(O)cc1)c1ccc2cccnc2c1O,20.1 µM
13,CC1CCCC(NC(=O)c2ccc3cccnc3c2O)C1 (stereo not shown),20.6 µM
14,CCCCCCCCCCCCCCCCCCNC(=O)c1ccc2cccnc2c1O,20.7 µM
15,O=C(NCCC1=CCCCC1)c1ccc2cccnc2c1O,21.1 µM
16,CC(NC(=O)c1ccc2cccnc2c1O)c1ccccc1 (stereo not shown),22.2 µM
17,O=C(NCc1cc(F)ccc1F)c1ccc2cccnc2c1O,22.3 µM
18,Cc1cccc(CNC(=O)c2ccc3cccnc3c2O)c1,22.6 µM
19,Cc1ccccc1CNC(=O)c1ccc2cccnc2c1O,23.2 µM
20,CC1CCC(NC(=O)c2ccc3cccnc3c2O)CC1 (stereo not shown),23.3 µM
21,O=C(NC1CCCCCC1)c1ccc2cccnc2c1O,23.8 µM
22,O=C(NCC1CCCCC1)c1ccc2cccnc2c1O,24.2 µM
23,O=C(NC1C2CC3CC(C2)CC1C3)c1ccc2cccnc2c1O (stereo not shown),24.3 µM
24,C[C@@H](NC(=O)c1ccc2cccnc2c1O)c1ccccc1,24.5 µM
25,CCOC(=O)C(Cc1c[nH]c2ccccc12)NC(=O)c1ccc2cccnc2c1O (stereo not shown),24.6 µM and 29.4 µM

# Same assay, conditions: Table 10; CMV pol Assay; read-out: IC50
row,SMILES,IC50 [µM]
1,O=C(Nc1cc(C(F)(F)F)cc(C(F)(F)F)c1)c1ccc2cccnc2c1O,68.2
2,Cc1noc(NS(=O)(=O)c2ccc(NC(=O)c3ccc4cccnc4c3O)cc2)c1C,90
3,O=C(Nc1ccc2c(c1)OCO2)c1ccc2cccnc2c1O,16.4
4,O=C(Nc1ccccc1Br)c1ccc2cccnc2c1O,16
5,O=C(Nc1cc(Br)ccc1Br)c1ccc2cccnc2c1O,10.1
6,O=C(Nc1ccccc1F)c1ccc2cccnc2c1O,27.3
7,N#Cc1c(F)c(F)c(NC(=O)c2ccc3cccnc3c2O)c(F)c1F,18.5
8,O=C(Nc1ccc(F)cc1F)c1ccc2cccnc2c1O,26.8
9,O=C(Nc1cc(F)c(F)cc1F)c1ccc2cccnc2c1O,27.4
10,O=C(Nc1ccccc1Cl)c1ccc2cccnc2c1O,9.4
11,O=C(Nc1ccc([N+](=O)[O-])cc1Cl)c1ccc2cccnc2c1O,3.3
12,Cc1ccc(Cl)c(NC(=O)c2ccc3cccnc3c2O)c1,7.5
13,O=C(Nc1ccccc1I)c1ccc2cccnc2c1O,12.5
14,O=C(Nc1ccccc1[N+](=O)[O-])c1ccc2cccnc2c1O,> 100
15,O=C(Nc1cc(Cl)ccc1O)c1ccc2cccnc2c1O,13.8
16,O=C(Nc1ccccc1-c1ccccc1)c1ccc2cccnc2c1O,4.3
17,CSc1ccccc1NC(=O)c1ccc2cccnc2c1O,8.2
18,Cc1ccccc1NC(=O)c1ccc2cccnc2c1O,13.4
19,Cc1c(NC(=O)c2ccc3cccnc3c2O)cccc1[N+](=O)[O-],5.5
20,Cc1cccc(NC(=O)c2ccc3cccnc3c2O)c1C,8.6
21,CCc1ccccc1NC(=O)c1ccc2cccnc2c1O,7.3
22,O=C(Nc1cccc(C(F)(F)F)c1)c1ccc2cccnc2c1O,18.4
23,Cc1cc(F)ccc1NC(=O)c1ccc2cccnc2c1O,10.2
24,Cc1cc(Cl)ccc1NC(=O)c1ccc2cccnc2c1O,3.6
25,COc1cc(Cl)c(C)cc1NC(=O)c1ccc2cccnc2c1O,7.9
26,CCCc1ccc(NC(=O)c2ccc3cccnc3c2O)cc1,3.1
27,O=C(Nc1ccc(Br)cc1F)c1ccc2cccnc2c1O,6.9
28,COc1ccc(Cl)c(NC(=O)c2ccc3cccnc3c2O)c1,7
29,O=C(Nc1ccc(CO)cc1)c1ccc2cccnc2c1O,3.7
30,O=C(Nc1ccc(Br)cn1)c1ccc2cccnc2c1O,21.6
